Test results reported in PubChem BioAssay AID1963830 (Molecular Pharmacology Branch, DTP, NCI, 2024).
Several values for one entry are separate records, joined by “and”; a condition that tells them apart may be missing. Equal values may be shown once.

System: 922993-354-T-J3-PDC complex spheroid viability
Test: Anticancer human tumor 922993-354-T-J3-PDC patient-derived endometrial carcinoma cell line growth inhibition [POLQ]
Conditions: for viability, T/C: stronger effect = lower value
Procedure: Multicellular complex tumor spheroid response to Polymerase (POL) inhibitors (novobiocin, ART-558, RP6685) in combination with a variety of drugs and investigational agents in selected tumor cell lines
The POL inhibitors (novobiocin, ART-558, and RP6685) were evaluated both individually and in combination with standard of care and investigational anticancer small molecules within a complex spheroid model of solid tumors. . Complex spheroids include a stromal component modeled by human endothelial cells (HUVEC) and fibroblasts modeled by human mesenchymal stem cells (MSCs). The concentration ranges selected for each drug and investigational agent were based upon clinically achievable concentrations if the clinical Cmax of the agent was known.
Compounds. The drugs and investigational agents: novobiocin (NSC847541), ART-558 (NSC835418), RP-6685 (NSC848927), peposertib (NSC802822), ceralasertib (NSC780249), elimusertib (NSC800525), camonsertib (NSC841442), AZD-1390 (NSC803789), olaparib (NSC753686), talazoparib (NSC767125), rucaparib (NSC756644), sotorasib (NSC818433), MRTX-1133 (NSC836407), SN-38 (NSC673596), topotecan (NSC609699), epotoside (NSC141540), doxorubicin (NSC123127), gemcitabine (NSC613327), 5-fluorouracil (NSC19893), paclitaxel (NSC125973), vemurafenib (NSC761431), MSA-2 (NSC828583), SN-011 (NSC837082), adavosertib (NSC754352), prexasertib (NSC758257), carboplatin (NSC241240) and oxaliplatin (NSC266046), were obtained from the National Cancer Institute (NCI) Developmental Therapeutics Program Chemical Repository (21). The FDA-approved anticancer drug set is available from the Developmental Therapeutics Program at https://dtp.cancer.gov/organization/dscb/obtaining/. […] The stock solutions were prepared in dimethyl sulfoxide (DMSO, Sigma-Aldrich, St. Louis, MO, cat. D2650), except for the platinum compounds which were prepared in saline (Quality Biological, Gaithersburg, MD, cat. 114-055-101), at 800-fold the tested concentration and stored at -70 degrees C prior to their use. All drugs and investigational agents were tested over a range starting from a high concentration at or near the clinical Cmax and decreasing in half-log increments. If the clinical Cmax for an agent had not been determined, the highest concentration tested was 10 microM, except for SN-38, which was tested at a high concentration of 1 microM.
Cell Culture. All cells were maintained in an incubator at 37 degrees C and 5% CO2 with 95% humidity. The PDC lines were cultured according to standard operating procedures established by the NCI PDMR (https://pdmr.cancer.gov). Table 3 of the manuscript, lists the cell lines along with the number of the three cell types plated to form the mct-spheroids and media for tumor cell growth. After thawing, all PDC lines, except 997537-175-T-J1-PDC and 415267-285-R-J2-PDC, were cultured in Matrigel-coated flasks prepared with a working solution of 1X Ham's F-12 nutrient mix, without supplementation (Thermo Fisher Scientific, cat. 11765054), 100 U/mL penicillin-streptomycin (Thermo Fisher Scientific, cat. 15140122), and 2.5% Matrigel (Corning Inc., Corning, NY, cat. 354248) for the first three passages. The two PDC lines 997537-175-T-J1-PDC and 415267-285-R-J2-PDC were cultured on uncoated flasks. The 857933-349-R-J2-PDC line was cultured in 6C/Colon 1B media containing advanced DMEM/F-12 (Thermo Fisher Scientific, cat. 12634028), 10 mM HEPES (Thermo Fisher Scientific, cat. 15630080), 1X GlutaMAX supplement (Thermo Fisher Scientific, cat. 35050061), 0.1 mg/mL primocin (InvivoGen, San Diego, CA, cat. ant-pm-2), 10% defined fetal bovine serum, heat inactivated (HyClone Laboratories Inc., Logan, UT, cat. SH30070.03HI), 50% L-WRN conditioned media (ATCC, cat. CRL-3276), 1.25 mM N-Acetyl-L-cysteine (Sigma-Aldrich, cat. A9165), 10 mM nicotinamide (Sigma-Aldrich, cat. N0636), 1X B-27 supplement (Thermo Fisher Scientific, cat. 17504044), 1X N-2 supplement (Thermo Fisher Scientific, cat. […]
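Also: spheroids exposed to the agents for one week.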
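For viability, T/C in this document: 100% = DMSO vehicle control wells.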

CC(=O)O[C@H]1C(=O)[C@@]2(C)[C@H]([C@H](OC(=O)c3ccccc3)[C@]3(O)C[C@H](OC(=O)[C@H](O)[C@@H](NC(=O)c4ccccc4)c4ccccc4)C(C)=C1C3(C)C)[C@]1(OC(C)=O)CO[C@@H]1C[C@@H]2O + COC1C(OC(N)=O)C(O)C(Oc2ccc3c(O)c(NC(=O)c4ccc(O)c(CC=C(C)C)c4)c(=O)oc3c2C)OC1(C)C
IC50 (curve of first compound, second compound 0.0316 µM): 2.64 µM | IC50 (curve of first compound, second compound 0.1 µM): > 3 µM | IC50 (curve of first compound, second compound 0.316 µM): 2.99 µM | IC50 (curve of first compound, second compound 1 µM): > 3 µM | IC50 (curve of first compound, second compound 3.16 µM): > 3 µM | IC50 (curve of first compound, second compound 10 µM): 2 µM | viability, T/C (second compound 0.0316 µM, first compound 0.00949 µM): 97% | viability, T/C (second compound 0.0316 µM, first compound 0.03 µM): 96.3% | viability, T/C (second compound 0.0316 µM, first compound 0.0949 µM): 95.1% | viability, T/C (second compound 0.0316 µM, first compound 0.3 µM): 105% | viability, T/C (second compound 0.0316 µM, first compound 0.949 µM): 85.5% | viability, T/C (second compound 0.0316 µM, first compound 3 µM): 45.6% | viability, T/C (second compound 0.1 µM, first compound 0.00949 µM): 102% | viability, T/C (second compound 0.1 µM, first compound 0.03 µM): 101% | viability, T/C (second compound 0.1 µM, first compound 0.0949 µM): 107% | viability, T/C (second compound 0.1 µM, first compound 0.3 µM): 106% | viability, T/C (second compound 0.1 µM, first compound 0.949 µM): 83.6% | viability, T/C (second compound 0.1 µM, first compound 3 µM): 55.8% | viability, T/C (second compound 0.316 µM, first compound 0.00949 µM): 97.1% | viability, T/C (second compound 0.316 µM, first compound 0.03 µM): 118% | viability, T/C (second compound 0.316 µM, first compound 0.0949 µM): 104% | viability, T/C (second compound 0.316 µM, first compound 0.3 µM): 97.7% | viability, T/C (second compound 0.316 µM, first compound 0.949 µM): 80.5% | viability, T/C (second compound 0.316 µM, first compound 3 µM): 49.8% | viability, T/C (second compound 1 µM, first compound 0.00949 µM): 96.9% | viability, T/C (second compound 1 µM, first compound 0.03 µM): 99.4% | viability, T/C (second compound 1 µM, first compound 0.0949 µM): 104% | viability, T/C (second compound 1 µM, first compound 0.3 µM): 104% | viability, T/C (second compound 1 µM, first compound 0.949 µM): 79.9% | viability, T/C (second compound 1 µM, first compound 3 µM): 53.2% | viability, T/C (second compound 3.16 µM, first compound 0.00949 µM): 99.2% | viability, T/C (second compound 3.16 µM, first compound 0.03 µM): 92.8% | viability, T/C (second compound 3.16 µM, first compound 0.0949 µM): 101% | viability, T/C (second compound 3.16 µM, first compound 0.3 µM): 99.3% | viability, T/C (second compound 3.16 µM, first compound 0.949 µM): 76.9% | viability, T/C (second compound 3.16 µM, first compound 3 µM): 54.9% | viability, T/C (second compound 10 µM, first compound 0.00949 µM): 84.7% | viability, T/C (second compound 10 µM, first compound 0.03 µM): 82.2% | viability, T/C (second compound 10 µM, first compound 0.0949 µM): 94.9% | viability, T/C (second compound 10 µM, first compound 0.3 µM): 68.9% | viability, T/C (second compound 10 µM, first compound 0.949 µM): 64% | viability, T/C (second compound 10 µM, first compound 3 µM): 43.3%

CCc1cc2c(N3CCc4c(cc(Cn5ccnc5)cc4-c4cn(C)nc4C(F)(F)F)C3=O)cc(C)nc2c(OC)n1
viability, T/C (compound 0.0316 µM): 93.1% and 105% and 99.3% | viability, T/C (compound 0.1 µM): 106% and 104% and 101% | viability, T/C (compound 0.316 µM): 98% and 103% and 106% | viability, T/C (compound 1 µM): 108% and 107% and 106% | viability, T/C (compound 3.16 µM): 99.3% and 102% and 104% | viability, T/C (compound 10 µM): 71.7% and 94.3% and 102% | IC50 (curve of compound): > 10 µM

CCc1cc2c(N3CCc4c(cc(Cn5ccnc5)cc4-c4cn(C)nc4C(F)(F)F)C3=O)ccnc2c(OC)n1
viability, T/C (compound 0.0316 µM): 109% and 106% and 102% | viability, T/C (compound 0.1 µM): 94.3% and 98% and 103% | viability, T/C (compound 0.316 µM): 87.5% and 105% and 107% | viability, T/C (compound 1 µM): 107% | viability, T/C (compound 3.16 µM): 91.8% and 108% and 103% | viability, T/C (compound 10 µM): 80.9% and 97.6% and 101% | IC50 (curve of compound): > 10 µM
